Test results as given in ChEMBL document CHEMBL3124816, “Preparation and optimization of new 4-(2-(indolin-1-yl)-2-oxoethyl)-2-morpholinothiazole-5-carboxylic acid and amide derivatives as potent and selective PI3Kβ inhibitors” (Bioorg Med Chem Lett, 2014).
≈ marks a conversion by molar mass, not a printed value. Calls of active or inactive are those of the source. The calls are words filed in the database; no cut-off is given here.

What was measured:
[1] = molecular target: Cytochrome P450 3A4 (Homo sapiens, UniProt P08684); assay: Inhibition of human recombinant CYP3A4
Cytochrome P450 3A4, sequence (P08684 whole entry, canonical isoform): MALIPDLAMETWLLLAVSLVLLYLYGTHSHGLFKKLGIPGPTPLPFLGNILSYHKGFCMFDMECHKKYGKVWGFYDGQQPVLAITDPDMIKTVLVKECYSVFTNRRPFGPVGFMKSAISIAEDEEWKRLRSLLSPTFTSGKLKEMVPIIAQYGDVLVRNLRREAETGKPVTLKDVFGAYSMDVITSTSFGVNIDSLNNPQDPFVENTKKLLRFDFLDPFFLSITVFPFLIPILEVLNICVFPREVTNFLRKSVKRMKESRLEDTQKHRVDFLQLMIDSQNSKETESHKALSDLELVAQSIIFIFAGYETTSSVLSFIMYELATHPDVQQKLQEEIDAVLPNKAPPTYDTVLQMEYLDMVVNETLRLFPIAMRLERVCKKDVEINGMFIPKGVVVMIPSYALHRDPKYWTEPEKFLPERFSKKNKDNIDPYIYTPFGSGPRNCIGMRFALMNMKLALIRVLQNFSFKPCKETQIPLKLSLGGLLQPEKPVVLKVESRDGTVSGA

[2] = molecular target: Phosphatidylinositol 4,5-bisphosphate 3-kinase catalytic subunit alpha isoform (Homo sapiens, UniProt P42336); assay: Inhibition of human PI3Kalpha after 15 mins
Phosphatidylinositol 4,5-bisphosphate 3-kinase catalytic subunit alpha isoform, sequence (P42336 whole entry, canonical isoform): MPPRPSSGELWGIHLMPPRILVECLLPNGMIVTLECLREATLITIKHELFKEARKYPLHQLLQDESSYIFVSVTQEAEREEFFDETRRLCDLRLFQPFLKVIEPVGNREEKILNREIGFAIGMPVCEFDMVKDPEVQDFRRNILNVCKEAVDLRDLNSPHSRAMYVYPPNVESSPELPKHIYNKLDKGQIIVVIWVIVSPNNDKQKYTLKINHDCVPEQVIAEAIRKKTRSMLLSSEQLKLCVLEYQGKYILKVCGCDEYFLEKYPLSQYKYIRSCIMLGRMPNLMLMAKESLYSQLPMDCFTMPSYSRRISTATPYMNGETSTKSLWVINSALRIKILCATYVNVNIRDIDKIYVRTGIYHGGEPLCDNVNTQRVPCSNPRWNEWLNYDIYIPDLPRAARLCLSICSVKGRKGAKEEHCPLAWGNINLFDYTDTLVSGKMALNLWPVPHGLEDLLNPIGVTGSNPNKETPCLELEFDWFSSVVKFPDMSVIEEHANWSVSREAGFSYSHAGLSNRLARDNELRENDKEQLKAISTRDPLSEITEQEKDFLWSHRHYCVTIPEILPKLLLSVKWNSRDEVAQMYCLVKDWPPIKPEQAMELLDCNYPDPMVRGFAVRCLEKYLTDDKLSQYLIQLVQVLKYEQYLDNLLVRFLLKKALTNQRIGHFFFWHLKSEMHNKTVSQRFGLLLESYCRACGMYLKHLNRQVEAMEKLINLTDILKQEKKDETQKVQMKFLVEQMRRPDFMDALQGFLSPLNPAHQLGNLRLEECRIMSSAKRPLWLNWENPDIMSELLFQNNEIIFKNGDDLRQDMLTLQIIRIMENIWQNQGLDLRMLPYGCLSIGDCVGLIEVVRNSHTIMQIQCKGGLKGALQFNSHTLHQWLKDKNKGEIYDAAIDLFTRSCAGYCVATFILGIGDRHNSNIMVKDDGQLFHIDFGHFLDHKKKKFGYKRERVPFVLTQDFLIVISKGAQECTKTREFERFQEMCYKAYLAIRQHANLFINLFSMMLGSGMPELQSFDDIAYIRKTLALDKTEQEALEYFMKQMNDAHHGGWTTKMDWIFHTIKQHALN

[3] = system: Caco-2; assay: (§1) Apparent permeability of the compound in human Caco2 cells; type: ADME, cell-based
[4] = molecular target: T1, Phosphatidylinositol 4,5-bisphosphate 3-kinase catalytic subunit beta isoform (Homo sapiens, UniProt P42338); assay: Inhibition of PI3Kbeta in human PTEN-deficient PC3 cells assessed as Akt phosphorylation at S473; type: cell-based, PC-3
T1 sequence (P42338 whole entry, canonical isoform): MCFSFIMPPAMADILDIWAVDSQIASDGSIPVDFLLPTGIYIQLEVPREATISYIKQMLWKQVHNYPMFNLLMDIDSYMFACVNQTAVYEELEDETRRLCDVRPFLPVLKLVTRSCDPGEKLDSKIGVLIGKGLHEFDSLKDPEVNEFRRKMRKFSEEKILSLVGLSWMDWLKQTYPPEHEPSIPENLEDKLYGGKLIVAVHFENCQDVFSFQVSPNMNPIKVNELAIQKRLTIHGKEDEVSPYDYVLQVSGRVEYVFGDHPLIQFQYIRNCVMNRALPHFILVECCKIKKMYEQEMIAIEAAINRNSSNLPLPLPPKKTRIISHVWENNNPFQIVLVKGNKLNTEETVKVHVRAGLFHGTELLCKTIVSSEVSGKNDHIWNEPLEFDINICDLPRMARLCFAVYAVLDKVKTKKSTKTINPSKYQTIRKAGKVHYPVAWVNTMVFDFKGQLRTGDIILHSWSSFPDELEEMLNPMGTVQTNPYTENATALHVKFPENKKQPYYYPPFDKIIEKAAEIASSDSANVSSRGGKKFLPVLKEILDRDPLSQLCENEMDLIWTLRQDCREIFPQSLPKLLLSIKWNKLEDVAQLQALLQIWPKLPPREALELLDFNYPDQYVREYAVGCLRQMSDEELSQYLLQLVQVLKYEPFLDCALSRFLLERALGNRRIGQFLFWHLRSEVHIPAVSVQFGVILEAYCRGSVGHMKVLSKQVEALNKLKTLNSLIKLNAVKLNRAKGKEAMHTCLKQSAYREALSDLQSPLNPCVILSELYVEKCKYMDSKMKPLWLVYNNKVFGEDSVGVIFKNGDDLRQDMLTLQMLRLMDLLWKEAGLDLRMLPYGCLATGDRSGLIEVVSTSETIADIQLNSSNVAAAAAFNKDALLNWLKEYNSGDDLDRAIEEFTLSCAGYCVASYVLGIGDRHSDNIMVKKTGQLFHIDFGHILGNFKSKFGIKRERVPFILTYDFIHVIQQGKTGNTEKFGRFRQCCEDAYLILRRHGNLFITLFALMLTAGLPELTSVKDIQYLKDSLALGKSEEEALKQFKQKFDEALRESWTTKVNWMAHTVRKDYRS

[5] = Drug metabolism in mouse liver microsomes assessed as compound lability; type: ADME, Microsome; conditions: for Drug metabolism: microsomes; for metabolised: liver microsomes, read-out: Drug metabolism
[6] = molecular target: T2, Phosphatidylinositol 4,5-bisphosphate 3-kinase catalytic subunit delta isoform (Homo sapiens, UniProt O00329); assay: Inhibition of human PI3Kdelta after 15 mins
T2 sequence (O00329 whole entry): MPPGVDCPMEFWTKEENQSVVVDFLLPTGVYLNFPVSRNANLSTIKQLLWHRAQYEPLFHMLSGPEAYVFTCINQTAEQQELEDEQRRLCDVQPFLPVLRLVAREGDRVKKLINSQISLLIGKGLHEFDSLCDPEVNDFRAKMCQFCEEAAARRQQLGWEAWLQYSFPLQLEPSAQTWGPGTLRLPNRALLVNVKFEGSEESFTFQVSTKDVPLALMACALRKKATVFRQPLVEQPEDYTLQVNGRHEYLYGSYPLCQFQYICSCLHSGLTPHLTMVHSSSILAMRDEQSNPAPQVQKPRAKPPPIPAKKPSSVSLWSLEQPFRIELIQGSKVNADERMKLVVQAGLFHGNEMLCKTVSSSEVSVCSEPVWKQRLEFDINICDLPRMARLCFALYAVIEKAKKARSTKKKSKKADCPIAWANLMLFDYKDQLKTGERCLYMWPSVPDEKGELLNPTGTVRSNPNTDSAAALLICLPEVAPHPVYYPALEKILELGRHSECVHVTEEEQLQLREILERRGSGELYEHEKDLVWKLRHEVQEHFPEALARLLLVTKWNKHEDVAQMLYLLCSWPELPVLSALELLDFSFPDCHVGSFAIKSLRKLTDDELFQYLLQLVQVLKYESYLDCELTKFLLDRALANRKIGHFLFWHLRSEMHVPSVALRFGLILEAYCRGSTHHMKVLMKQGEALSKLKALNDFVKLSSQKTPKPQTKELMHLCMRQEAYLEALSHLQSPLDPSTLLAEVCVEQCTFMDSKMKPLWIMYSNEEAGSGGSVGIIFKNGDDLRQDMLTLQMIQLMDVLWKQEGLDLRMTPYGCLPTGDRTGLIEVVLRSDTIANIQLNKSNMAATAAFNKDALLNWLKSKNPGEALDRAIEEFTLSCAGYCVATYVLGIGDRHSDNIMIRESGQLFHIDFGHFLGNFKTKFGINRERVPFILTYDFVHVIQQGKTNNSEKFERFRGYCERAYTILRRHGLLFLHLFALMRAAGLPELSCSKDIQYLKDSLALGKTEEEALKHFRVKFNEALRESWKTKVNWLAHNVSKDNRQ

[7] = molecular target: T1, Phosphatidylinositol 4,5-bisphosphate 3-kinase catalytic subunit beta isoform; assay: Inhibition of human PI3Kbeta after 15 mins
[8] = system: Liver microsome; assay: (§2) Drug metabolism in human liver microsomes assessed as compound lability; type: ADME; conditions: microsomes
[9] = molecular target: Phosphatidylinositol 4,5-bisphosphate 3-kinase catalytic subunit gamma isoform (Homo sapiens, UniProt P48736); assay: Inhibition of human PI3Kgamma after 15 mins
Phosphatidylinositol 4,5-bisphosphate 3-kinase catalytic subunit gamma isoform, sequence (P48736 whole entry, canonical isoform): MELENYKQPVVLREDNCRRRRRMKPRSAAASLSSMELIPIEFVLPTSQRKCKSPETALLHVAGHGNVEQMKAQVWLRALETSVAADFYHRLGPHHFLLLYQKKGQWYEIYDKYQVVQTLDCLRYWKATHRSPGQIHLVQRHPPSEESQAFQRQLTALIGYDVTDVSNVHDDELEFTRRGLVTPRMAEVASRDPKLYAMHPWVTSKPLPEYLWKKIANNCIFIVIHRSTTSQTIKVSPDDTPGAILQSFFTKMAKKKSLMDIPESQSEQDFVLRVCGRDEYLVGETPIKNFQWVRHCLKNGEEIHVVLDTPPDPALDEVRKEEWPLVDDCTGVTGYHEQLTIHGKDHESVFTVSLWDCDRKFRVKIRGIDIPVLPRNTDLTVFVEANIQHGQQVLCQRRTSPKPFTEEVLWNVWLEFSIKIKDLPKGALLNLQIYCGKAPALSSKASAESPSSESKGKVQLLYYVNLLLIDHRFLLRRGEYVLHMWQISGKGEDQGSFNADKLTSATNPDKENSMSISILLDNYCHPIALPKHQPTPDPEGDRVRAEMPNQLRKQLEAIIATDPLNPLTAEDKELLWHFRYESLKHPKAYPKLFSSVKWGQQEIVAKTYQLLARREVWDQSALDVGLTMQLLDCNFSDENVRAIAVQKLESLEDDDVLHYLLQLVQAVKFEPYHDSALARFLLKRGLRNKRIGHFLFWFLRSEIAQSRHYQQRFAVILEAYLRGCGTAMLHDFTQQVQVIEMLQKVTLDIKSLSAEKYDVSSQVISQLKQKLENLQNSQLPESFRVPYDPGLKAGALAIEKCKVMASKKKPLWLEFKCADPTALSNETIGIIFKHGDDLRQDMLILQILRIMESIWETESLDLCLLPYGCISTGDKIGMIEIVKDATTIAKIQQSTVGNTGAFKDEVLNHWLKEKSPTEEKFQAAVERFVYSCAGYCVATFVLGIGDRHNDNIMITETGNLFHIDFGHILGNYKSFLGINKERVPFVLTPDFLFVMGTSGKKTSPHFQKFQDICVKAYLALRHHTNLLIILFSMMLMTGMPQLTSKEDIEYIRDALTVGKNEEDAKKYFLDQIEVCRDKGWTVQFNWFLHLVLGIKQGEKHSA

[10] = system: Mus musculus; assay: Inhibition of PI3Kbeta in SCID mouse harboring human PTEN-deficient PC3 cells assessed as Akt phosphorylation at S473 at 150 mg/kg, po after 7 hrs; type: functional, organism-based; parameters: dose 150 mg/kg; conditions: PC-3
[11] = system: Mus musculus; assay: Inhibition of PI3Kbeta in SCID mouse harboring human PTEN-deficient PC3 cells assessed as Akt phosphorylation at S473 at 150 mg/kg, po after 1 hr; type: functional, organism-based; parameters: dose 150 mg/kg; conditions: PC-3
[12] = system: Mus musculus; assay: Inhibition of PI3Kbeta in SCID mouse harboring human PTEN-deficient PC3 cells assessed as Akt phosphorylation at S473 at 150 mg/kg, po after 16 hrs; type: functional, organism-based; parameters: dose 150 mg/kg; conditions: PC-3
[13] = Oral bioavailability in Sprague-Dawley rat at 10 mg/kg; type: ADME, organism-based; conditions: in vivo
[14] = Terminal elimination half life in Sprague-Dawley rat at 3 mg/kg, iv; type: ADME, organism-based; parameters: dose 3 mg/kg, route intravenous; conditions: in vivo, read-out: beta t1/2 (converted)
[15] = Thermodynamic solubility of the compound in 50 mM Phosphate buffer at pH 7.4 after 16 hrs by HPLC analysis; type: physicochemical; conditions: for solubility thermodynamic at 16 h: phosphate buffer, pH 7.4, read-out: Therm_solubility
[16] = Volume of distribution at steady state in Sprague-Dawley rat at 3 mg/kg, iv; type: ADME, organism-based; parameters: dose 3 mg/kg, route intravenous; conditions: in vivo, read-out: Vdss
[17] = Plasma concentration in SCID mouse harboring human PTEN-deficient PC3 cells at 150 mg/kg, po after 1 hr; type: ADME, organism-based, PC-3; parameters: dose 150 mg/kg, route oral
[18] = Tmax in Sprague-Dawley rat at 10 mg/kg, po; type: ADME, organism-based; parameters: dose 10 mg/kg, route oral; conditions: in vivo
[19] = Plasma protein binding in mouse; type: ADME, organism-based; conditions: read-out: PPB (converted)
[20] = AUC in Sprague-Dawley rat at 10 mg/kg, po; type: ADME, organism-based; parameters: dose 10 mg/kg, route oral; conditions: plasma
[21] = Terminal elimination half life in Sprague-Dawley rat at 10 mg/kg, po; type: ADME, organism-based; parameters: dose 10 mg/kg, route oral; conditions: in vivo, read-out: beta t1/2 (converted)
[22] = Cmax in Sprague-Dawley rat at 10 mg/kg, po; type: ADME, organism-based; parameters: dose 10 mg/kg, route oral; conditions: in vivo
[23] = Clearance in Sprague-Dawley rat at 3 mg/kg, iv; type: ADME, organism-based; parameters: dose 3 mg/kg, route intravenous; conditions: in vivo
[24] = as §1; type: ADME, cell-based; conditions: Caco-2
[25] = Plasma concentration in SCID mouse harboring human PTEN-deficient PC3 cells at 150 mg/kg, po after 7 hrs; type: ADME, organism-based, PC-3; parameters: dose 150 mg/kg, route oral
[26] = Drug metabolism in rat liver microsomes assessed as compound lability; type: ADME; conditions: read-out: Drug metabolism
[27] = Plasma concentration in SCID mouse harboring human PTEN-deficient PC3 cells at 150 mg/kg, po after 16 hrs; type: ADME, organism-based, PC-3; parameters: dose 150 mg/kg, route oral
[28] = as §2; type: ADME; conditions: liver microsomes, read-out: Drug metabolism
[29] = Plasma concentration in SCID mouse harboring human PTEN-deficient PC3 cells at 100 mg/kg, po after 16 hrs; type: ADME, organism-based, PC-3; parameters: dose 100 mg/kg, route oral
[30] = Plasma concentration in SCID mouse harboring human PTEN-deficient PC3 cells at 100 mg/kg, po after 1 hr; type: ADME, organism-based, PC-3; parameters: dose 100 mg/kg, route oral
[31] = system: Mus musculus; assay: Inhibition of PI3Kbeta in SCID mouse harboring human PTEN-deficient PC3 cells assessed as Akt phosphorylation at S473 at 100 mg/kg, po after 1 hr; type: functional, organism-based; parameters: dose 100 mg/kg; conditions: PC-3
[32] = system: Mus musculus; assay: Inhibition of PI3Kbeta in SCID mouse harboring human PTEN-deficient PC3 cells assessed as Akt phosphorylation at S473 at 100 mg/kg, po after 7 hrs; type: functional, organism-based; parameters: dose 100 mg/kg; conditions: PC-3
[33] = Plasma concentration in SCID mouse harboring human PTEN-deficient PC3 cells at 100 mg/kg, po after 7 hrs; type: ADME, organism-based, PC-3; parameters: dose 100 mg/kg, route oral
[34] = system: Mus musculus; assay: Inhibition of PI3Kbeta in SCID mouse harboring human PTEN-deficient PC3 cells assessed as Akt phosphorylation at S473 at 100 mg/kg, po after 16 hrs; type: functional, organism-based; parameters: dose 100 mg/kg; conditions: PC-3
[35] = Efflux ratio of permeability from basolateral to apical side over apical to basolateral side in human Caco2 cells; type: ADME, cell-based; conditions: Caco-2

| SMILES | IC50 [1] [nM] | IC50 [2] [nM] | IC50 [4] [nM] | Drug metabolism [5] [%] | IC50 [6] [nM] | IC50 [7] [nM] | IC50 [9] [nM] | Papp [24] [×10⁻⁶ cm/s] | solubility thermodynamic at 16 h [15] [mM] | metabolised [28] [%] | metabolised [5] [%] | other results |
| --- | --- | --- | --- | --- | --- | --- | --- | --- | --- | --- | --- | --- |
| CC1Cc2c(Br)cccc2N1C(=O)Cc1nc(N2CCOCC2)sc1C(N)=O (single isomer, unassigned; enantiomer 2) | 40000 | 1320 | 17 | 67 | 430 | 58 | > 10000 |  |  |  |  | Papp [3]: 20.7 ×10⁻⁶ cm/s; Drug metabolism [8]: 75% |
| CC1Cc2c(Br)cccc2N1C(=O)Cc1nc(N2CCOCC2)sc1C(=O)O (single isomer, unassigned; enantiomer 1) [listing 1 of 2 here] |  |  |  |  |  |  |  |  |  |  |  | inhibition [10]: Active; inhibition [11]: Active; inhibition [12]: Active |
| CC1Cc2c(Br)cccc2N1C(=O)Cc1nc(N2CCOCC2)sc1C(=O)O (single isomer, unassigned; enantiomer 1) [listing 2 of 2 here] |  | 395 | 140 | 17 | 63 | 10 | 4350 | 0.5 |  |  |  | bioavailability [13]: 99%; half-life [14]: 3.8 h; Therm_solubility ([15]; buffer, pH 7.4, 16 h, 16 h): 3.795 mM; Vd [16]: 0.65 L/kg; concentration at 1 h [17]: 181000 nM; Tmax [18]: 0.25 h; fraction unbound [19]: 0.015; AUC [20]: 41000 ng·h/mL; half-life [21]: 6.3 h; Cmax [22]: 15100 ng/mL; clearance [23]: 4.17 mL/min/kg; concentration at 7 h [25]: 79000 nM; metabolised [26]: 7%; concentration at 16 h [27]: 3000 nM |
| CC1Cc2c(Br)cccc2N1C(=O)Cc1nc(N2CCOCC2)sc1C(=O)O (single isomer, unassigned; enantiomer 2) | 40000 | 3110 | 307 | 7 | 861 | 84 | 10000 |  | 4.29 (≈ 2000 µg/mL) | 0 |  | Papp [3]: 0.4 ×10⁻⁶ cm/s |
| NC(=O)c1sc(N2CCOCC2)nc1CC(=O)N1CCc2cc(F)ccc21 | 40000 | 6970 | 15 |  | 134 | 22 | > 10000 | 22.2 | 0.007 (≈ 2.73 µg/mL) | 17 | 22 | concentration at 16 h [29]: 4 nM; concentration at 1 h [30]: 310 nM; inhibition [31]: Active; inhibition [32]: Active; concentration at 7 h [33]: 40 nM; inhibition [34]: Active |
| CC1Cc2cc(F)ccc2N1C(=O)Cc1nc(N2CCOCC2)sc1C(=O)O (stereo not given) | 40000 | > 10000 | 817 |  | 219 | 15 | > 10000 | 0.9 | 4.93 (≈ 2000 µg/mL) | 3 | 3 |  |
| CC1Cc2cc(F)ccc2N1C(=O)Cc1nc(N2CCOCC2)sc1C(N)=O (stereo not given) | 40 | > 10000 | 14 |  | 127 | 20 | > 10000 | 19.3 | 0.045 (≈ 18.2 µg/mL) | 42 | 48 |  |
| O=C(O)c1sc(N2CCOCC2)nc1CC(=O)N1CCc2cc(F)ccc21 | 40000 | > 10000 | 1730 |  | 64 | 25 | > 10000 | 0.4 | 5.11 (≈ 2000 µg/mL) | 1 | 1 | efflux ratio [35]: 13 |
| O=C(O)c1sc(N2CCOCC2)nc1CC(=O)N1CCc2c(Cl)cccc21 | 40000 | 2210 | 2000 |  | 245 | 23 | > 10000 | 0.7 | 1.48 (≈ 602 µg/mL) | 1 | 9 |  |
